In publication PMC6428247, “Potent inhibitors of equine steroid isomerase EcaGST A3-3” (PLoS ONE, 2019):
Where “and” joins values, the source holds several entries; their conditions need not be identical. Equal entries are not always repeated. Structures can show the parent of a compound that is named as a salt.

Experiments:
EcaGST A3-3 [1] = target: T1, EcaGST A3-3 (Equus caballus, UniProt M9ZT87); experiment: Inhibition of EcaGST A3-3 activity, GSH conjugation with CDNB; format: biochemical, Equus ferus caballus; details: for inhibition at 10 µM: read-out: Inhibition (%) of EcaGST A3-3; for IC50: 100 mM sodium phosphate pH 6.5, 30°C, read-out: IC50 EcaGST A3-3, substrate CDNB
Protocol: The final solvent concentration in the reaction system was kept at 5% (v/v) as a maximum.
(§1) The conjugation of GSH with the electrophilic substrate CDNB was used as a biochemical assay for general activity measurements. Screening of the US Drug library for inhibition was done in triplicates in 96-well plates in a Thermo Scientific Multiskan GO spectrophotometer. The conjugation activity at 30°C was monitored at 340 nm for 1 min in 0.1 M sodium phosphate buffer at pH 6.5 and 10 μM inhibitor concentration in a final volume of 300 μL. Initial concentrations of GSH and CDNB were 1 mM.
Assay conditions for inhibition measurements of enzyme activity with CDNB were the following: EcaGST A3-3 15 nM, initial concentrations of GSH and CDNB 1 mM, inhibitor concentrations varying from 0.029 μM to 15 μM, in 100 mM Na2HPO4/NaH2PO4 at pH 6.5.
The reactions were followed spectrophotometrically for 1 min at 30°C using a Shimadzu UV-2501 PC spectrophotometer (Shimadzu Inc.). All experiments included triplicate measurements in each data point.
The equation for competitive inhibition fitted by non-linear regression was v=Vmax[S]/KM(1+[I]/Ki)+[S] where [S] is the substrate concentrations and [I] is the inhibitor concentration.

EcaGST A3-3 [2] = target: T1, EcaGST A3-3; experiment: Inhibition of EcaGST A3-3 steroid double-bond isomerase activity with Δ^5-AD; format: biochemical, Equus ferus caballus; details: for IC50 EcaGST A3-3, substrate Δ^5-AD: 0.1 mM Δ^5-AD, 25 mM sodium phosphate pH 8.0, 30°C
HsaGST A3-3 = target: T2, HsaGST A3-3 (Homo sapiens, UniProt Q16772); experiment: Inhibition of HsaGST A3-3 CDNB activity; format: biochemical; details: 1 mM GSH, 1 mM CDNB, pH 6.5, 30°C; for IC50: CDNB activity
T2 construct: made in house
T2 sequence (Q16772 1-222): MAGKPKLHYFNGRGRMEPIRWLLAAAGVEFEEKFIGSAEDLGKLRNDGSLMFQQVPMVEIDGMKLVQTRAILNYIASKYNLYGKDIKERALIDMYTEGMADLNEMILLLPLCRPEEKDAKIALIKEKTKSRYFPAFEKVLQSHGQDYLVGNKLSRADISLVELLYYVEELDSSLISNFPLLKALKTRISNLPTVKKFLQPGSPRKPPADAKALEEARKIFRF
Protocol: (§2) EcaGST A3-3 [10], HsaGST A3-3 [12] and HsaGST M2-2 [13] were cloned, expressed and purified as described previously. Protein concentration was determined by means of the Bradford assay.
as §1
(§3) For understanding the effects of pharmacological interventions based on GST inhibitors, it is important to know the selectivity among the numerous GSTs. […] All values were determined with CDNB, which is a common substrate for all the enzymes.

HsaGST M2-2 = target: T3, HsaGST M2-2 (Homo sapiens, UniProt P28161); experiment: Inhibition of HsaGST M2-2 CDNB activity; format: biochemical; details: 1 mM GSH, 1 mM CDNB, pH 6.5, 30°C; for IC50: CDNB activity, read-out: IC50 HsaGST M2-2
T3 construct: made in house
T3 sequence (P28161 1-218): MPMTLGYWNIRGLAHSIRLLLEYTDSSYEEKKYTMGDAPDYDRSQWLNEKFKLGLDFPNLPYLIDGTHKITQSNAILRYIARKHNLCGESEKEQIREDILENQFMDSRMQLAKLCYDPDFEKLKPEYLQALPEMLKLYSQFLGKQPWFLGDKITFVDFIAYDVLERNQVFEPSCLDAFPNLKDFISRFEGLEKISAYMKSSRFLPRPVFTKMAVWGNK
Protocol: as §2, §1, §3

HsaGST P1-1 = tested on: HsaGST P1-1; parameters: method as in PMID 23769903; details: 3.3 μM inhibitor, 1 mM GSH, 1 mM CDNB, pH 6.5, 30°C; cited from earlier work
HsaGST S1-1 = tested on: HsaGST S1-1; parameters: method as in PMID 25603235; details: 1 mM GSH, 1 mM CDNB, pH 6.5, 30°C, cited from earlier work; for Inhibition (%) of HsaGST S1-1: 10 μM inhibitor
[3] = 10 μM inhibitor, 1 mM GSH, 1 mM CDNB, sodium phosphate pH 6.5, 30°C

T1 sequence (M9ZT87 entry or part of it): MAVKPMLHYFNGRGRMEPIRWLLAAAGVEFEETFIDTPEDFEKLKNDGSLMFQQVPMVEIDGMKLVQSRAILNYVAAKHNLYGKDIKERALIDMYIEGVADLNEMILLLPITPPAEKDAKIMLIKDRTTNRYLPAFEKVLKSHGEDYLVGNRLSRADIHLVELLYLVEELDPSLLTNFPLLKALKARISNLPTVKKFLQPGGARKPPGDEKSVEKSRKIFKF

## CCN(CCCc1ccccc1)CCCc1ccccc1 [Alverine citrate]
EcaGST A3-3 [1]; [3]
  inhibition at 10 µM: 31 ± 17%

## NCC(=O)CCC(=O)O [Aminolevulinic acid hydrochloride]
EcaGST A3-3 [1]; [3]
  inhibition at 10 µM: 32 ± 11%

## O=C1c2c(O)cccc2Cc2cccc(O)c21 [Anthralin]
EcaGST A3-3 [1]; [3]
  inhibition at 10 µM: 96 ± 1.8%
EcaGST A3-3 [1]; 1 mM CDNB, 1 mM GSH
  IC50: 2100 ± 270 nM
EcaGST A3-3 [1]; dose-response curve, substrate CDNB, mean ± SD
  Hill coefficient, CDNB inhibition: 2.0±0.43
EcaGST A3-3 [2]
  IC50: 85 ± 4.8 nM
EcaGST A3-3 [2]; 1 mM GSH
  IC50 EcaGST A3-3, substrate Δ^5-AD: submicromolar range
EcaGST A3-3 [2]; Ki, EcaGST A3-3, substrate Δ^5-AD, Δ^5-AD varied, 1 mM GSH, 0.09 μM inhibitor
  Ki: 90 nM and 93 nM
EcaGST A3-3 [2]; dose-response curve, substrate Δ^5-AD, mean ± SD
  Hill coefficient, Δ^5-AD inhibition: 1.9±0.19
EcaGST A3-3 [2]; ratio of IC50 values CDNB vs Δ^5-AD, EcaGST A3-3
  Times more potent with Δ^5-AD as substrate than with CDNB: approximately 25 times
EcaGST A3-3 [2]; Δ^5-AD varied, 1 mM GSH
  Inhibition modality, substrate Δ^5-AD: Competitive
HsaGST A3-3
  IC50: 720 nM
HsaGST A3-3; pH 6.5, 10 μM inhibitor, read-out: Inhibition (%) of HsaGST A3-3
  inhibition at 10 µM: 88%
HsaGST M2-2; 10 μM inhibitor, read-out: Inhibition (%) of HsaGST M2-2
  inhibition at 10 µM: 80%
HsaGST P1-1
  Inhibition (%) of HsaGST P1-1: 22%
HsaGST S1-1
  Inhibition (%) of HsaGST S1-1: 84%
HsaGST S1-1; CDNB activity
  IC50: 24000 nM

## OC[C@H]1O[C@H]([S-])[C@H](O)[C@@H](O)[C@@H]1O.[Au+] [Aurothioglucose]
EcaGST A3-3 [1]; [3]
  Inhibition (%) of EcaGST A3-3: 78 ± 28%
EcaGST A3-3 [1]; 1 mM CDNB, 1 mM GSH
  IC50: 850 ± 120 nM
EcaGST A3-3 [2]; 1 mM GSH
  IC50 EcaGST A3-3, substrate Δ^5-AD: Anomalous curve
HsaGST A3-3; 10 μM inhibitor
  Inhibition (%) of HsaGST A3-3: 96%
HsaGST A3-3
  IC50: 910 nM
HsaGST M2-2; 10 μM inhibitor
  Inhibition (%) of HsaGST M2-2: 85%
HsaGST M2-2
  IC50: 12000 nM
HsaGST P1-1
  Inhibition (%) of HsaGST P1-1: < 4%
HsaGST S1-1
  Inhibition (%) of HsaGST S1-1: 24%

## O=C(Nc1ccc(C(=O)O)c(O)c1)c1ccccc1 [Benzoylpas]
HsaGST M2-2
  IC50: 2500 nM

## O=[N+]([O-])c1ccc(Cl)c([N+](=O)[O-])c1 [CDNB, 1-chloro-2,4-dinitrobenzene]
EcaGST A3-3 [1]; read-out: Km of substrate CDNB with EcaGST A3-3, 1 mM GSH, fitted with and without ethacrynic acid
  Km: 1260 ± 82 µM

## CCCCCCCCCCCCCCCC(=O)OC[C@@H](NC(=O)C(Cl)Cl)[C@H](O)c1ccc([N+](=O)[O-])cc1 [Chloramphenicol palmitate]
EcaGST A3-3 [1]; [3]
  inhibition at 10 µM: 40 ± 1%

## CC[C@H]1OC(=O)[C@H](C)[C@@H](O[C@H]2C[C@@](C)(OC)[C@@H](O)[C@H](C)O2)[C@H](C)[C@@H](O[C@@H]2O[C@H](C)C[C@H](N(C)C)[C@H]2O)[C@](C)(OC)C[C@@H](C)C(=O)[C@H](C)[C@@H](O)[C@]1(C)O [Clarithromycin]
EcaGST A3-3 [1]; [3]
  inhibition at 10 µM: 36 ± 7%

## Oc1c(I)cc(Cl)c2cccnc12 [Clioquinol]
EcaGST A3-3 [1]; [3]
  inhibition at 10 µM: 64 ± 21%

## CC(C)/N=c1\cc2n(-c3ccc(Cl)cc3)c3ccccc3nc-2cc1Nc1ccc(Cl)cc1 [Clofazimine]
EcaGST A3-3 [1]; [3]
  inhibition at 10 µM: 52 ± 14%

## C[C@]12CC[C@@H]3c4ccc(OS(=O)(=O)O)cc4CC[C@H]3[C@@H]1CCC2=O [Estropipate]
EcaGST A3-3 [1]; [3]
  inhibition at 10 µM: 37 ± 23%

## C=C1C[C@@H]2[C@H](CC[C@]3(C)C(=O)CC[C@@H]23)[C@@]2(C)C=CC(=O)C=C12 [Exemestane]
EcaGST A3-3 [1]; [3]
  inhibition at 10 µM: 41 ± 12%

## CC(C)n1c(/C=C/C(O)CC(O)CC(=O)O)c(-c2ccc(F)cc2)c2ccccc21 (stereo not shown) [Fluvastatin sodium]
EcaGST A3-3 [1]; [3]
  inhibition at 10 µM: 31 ± 24%

## OCCOCCN1CCN(C(c2ccccc2)c2ccc(Cl)cc2)CC1 (stereo not shown) [Hydroxyzine pamoate]
EcaGST A3-3 [1]; [3]
  inhibition at 10 µM: ≤ 30%
HsaGST M2-2
  IC50: 760 nM
